% of control and % of inhibition data for five compounds are collected here from ChEMBL document CHEMBL5465560, “Selectivity Literature for EUbOPEN Chemogenomic Library” (2024).

The target of experiment [1] is T1, Tyrosine-protein kinase JAK3 (Homo sapiens) (UniProt P52333).
T1 sequence (whole entry): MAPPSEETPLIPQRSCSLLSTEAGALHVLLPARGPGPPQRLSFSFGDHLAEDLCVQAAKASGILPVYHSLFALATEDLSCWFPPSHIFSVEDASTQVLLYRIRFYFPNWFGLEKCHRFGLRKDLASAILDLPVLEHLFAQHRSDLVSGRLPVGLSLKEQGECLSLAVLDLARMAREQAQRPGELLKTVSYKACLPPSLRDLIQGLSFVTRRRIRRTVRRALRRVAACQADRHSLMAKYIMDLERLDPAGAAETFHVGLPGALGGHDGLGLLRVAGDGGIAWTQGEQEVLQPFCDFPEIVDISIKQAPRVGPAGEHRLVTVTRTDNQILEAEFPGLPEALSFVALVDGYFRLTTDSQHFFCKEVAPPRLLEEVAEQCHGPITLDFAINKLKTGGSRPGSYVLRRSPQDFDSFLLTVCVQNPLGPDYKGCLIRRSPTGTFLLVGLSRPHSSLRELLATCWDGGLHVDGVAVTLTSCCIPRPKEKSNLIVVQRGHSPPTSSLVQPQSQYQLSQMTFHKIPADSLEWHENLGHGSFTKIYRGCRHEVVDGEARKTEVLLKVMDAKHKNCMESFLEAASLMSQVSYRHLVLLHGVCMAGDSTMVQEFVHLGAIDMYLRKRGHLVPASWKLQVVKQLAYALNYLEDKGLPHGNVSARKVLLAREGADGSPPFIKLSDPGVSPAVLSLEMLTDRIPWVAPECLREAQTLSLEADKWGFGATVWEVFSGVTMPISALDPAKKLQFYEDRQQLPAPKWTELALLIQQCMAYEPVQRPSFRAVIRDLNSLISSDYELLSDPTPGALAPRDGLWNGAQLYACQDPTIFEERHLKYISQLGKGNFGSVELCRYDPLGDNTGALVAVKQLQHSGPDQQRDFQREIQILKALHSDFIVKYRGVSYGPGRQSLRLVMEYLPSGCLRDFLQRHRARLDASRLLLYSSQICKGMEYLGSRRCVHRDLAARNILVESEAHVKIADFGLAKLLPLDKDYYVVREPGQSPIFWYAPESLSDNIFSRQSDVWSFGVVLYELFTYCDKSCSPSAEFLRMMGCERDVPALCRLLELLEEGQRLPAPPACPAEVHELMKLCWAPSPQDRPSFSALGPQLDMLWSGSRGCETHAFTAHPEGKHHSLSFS
The experiment in a line: Selectivity interaction (ProQinase) EUB0000171b JAK3.

Experiment [2] deals with T2, Serine/threonine-protein kinase Chk1 (Homo sapiens) (UniProt O14757).
T2 sequence (whole entry): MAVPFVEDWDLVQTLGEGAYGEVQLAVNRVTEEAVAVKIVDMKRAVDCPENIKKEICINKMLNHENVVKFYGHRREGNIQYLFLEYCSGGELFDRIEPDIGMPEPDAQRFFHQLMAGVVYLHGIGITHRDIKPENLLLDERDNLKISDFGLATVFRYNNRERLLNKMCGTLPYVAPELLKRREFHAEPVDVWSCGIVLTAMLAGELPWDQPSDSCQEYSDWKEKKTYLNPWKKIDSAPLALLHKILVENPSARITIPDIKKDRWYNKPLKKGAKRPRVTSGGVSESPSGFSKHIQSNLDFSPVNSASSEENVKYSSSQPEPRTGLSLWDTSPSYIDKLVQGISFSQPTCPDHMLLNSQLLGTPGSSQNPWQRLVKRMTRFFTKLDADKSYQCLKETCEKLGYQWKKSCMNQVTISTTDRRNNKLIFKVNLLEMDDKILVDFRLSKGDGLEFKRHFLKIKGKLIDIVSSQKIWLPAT
Particulars: at 10 µM.

Experiment [3] concerns the target Vascular endothelial growth factor receptor 2 (Homo sapiens, UniProt P35968). The experiment can be described thus: Selectivity interaction (KinomeScan (DiscoverX)) EUB0001079a KDR. Particulars: at 1 µM.
The target in experiment [4] is Cyclin-dependent kinase 5 (Homo sapiens, UniProt Q00535). The experiment can be described thus: Selectivity interaction (KinomeScan (DiscoverX)) EUB0000045b CDK5.
Cyclin-dependent kinase 5, sequence (Q00535 whole entry, looked up): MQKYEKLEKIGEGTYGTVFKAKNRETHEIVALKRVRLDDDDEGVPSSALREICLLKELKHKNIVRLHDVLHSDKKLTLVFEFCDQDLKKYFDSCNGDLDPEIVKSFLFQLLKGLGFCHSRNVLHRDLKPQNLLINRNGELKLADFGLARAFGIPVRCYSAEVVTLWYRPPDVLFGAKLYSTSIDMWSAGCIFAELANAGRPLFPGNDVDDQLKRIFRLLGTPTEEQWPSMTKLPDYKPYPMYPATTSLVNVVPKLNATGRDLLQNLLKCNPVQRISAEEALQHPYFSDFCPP
Experiment [5] has as its target T3, Peripheral plasma membrane protein CASK (Homo sapiens) (UniProt O14936).
T3 sequence (whole entry): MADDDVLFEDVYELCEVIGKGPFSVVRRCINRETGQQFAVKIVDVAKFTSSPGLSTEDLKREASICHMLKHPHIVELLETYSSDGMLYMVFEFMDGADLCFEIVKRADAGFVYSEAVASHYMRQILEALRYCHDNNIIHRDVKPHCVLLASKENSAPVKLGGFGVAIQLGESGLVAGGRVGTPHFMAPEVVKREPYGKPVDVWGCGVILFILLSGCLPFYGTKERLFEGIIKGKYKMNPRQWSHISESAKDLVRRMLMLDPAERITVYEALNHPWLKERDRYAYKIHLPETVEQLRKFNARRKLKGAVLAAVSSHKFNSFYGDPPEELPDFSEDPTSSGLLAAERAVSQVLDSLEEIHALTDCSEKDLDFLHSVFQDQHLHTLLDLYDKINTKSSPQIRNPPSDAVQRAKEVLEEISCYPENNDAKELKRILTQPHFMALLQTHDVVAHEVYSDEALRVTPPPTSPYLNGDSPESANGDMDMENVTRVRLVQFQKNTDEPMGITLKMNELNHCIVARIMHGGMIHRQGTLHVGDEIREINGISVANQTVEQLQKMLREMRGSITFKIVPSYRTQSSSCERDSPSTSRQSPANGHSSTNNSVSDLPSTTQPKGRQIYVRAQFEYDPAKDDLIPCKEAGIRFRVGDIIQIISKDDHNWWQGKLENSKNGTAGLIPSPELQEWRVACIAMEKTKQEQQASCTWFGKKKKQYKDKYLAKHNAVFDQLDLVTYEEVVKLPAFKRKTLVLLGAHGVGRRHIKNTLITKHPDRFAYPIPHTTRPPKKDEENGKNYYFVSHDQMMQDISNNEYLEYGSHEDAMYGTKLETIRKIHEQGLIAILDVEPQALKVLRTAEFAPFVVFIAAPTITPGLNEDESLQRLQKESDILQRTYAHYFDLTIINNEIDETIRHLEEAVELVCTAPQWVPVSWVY
The experiment can be described thus: Selectivity interaction (KinomeScan (DiscoverX)) EUB0000045b CASK.

For the next experiment, the target named is SRSF protein kinase 1 (Homo sapiens, UniProt Q96SB4). The experiment can be described thus: Selectivity interaction (ActivX KiNativ screen (kinase selectivity in THP-1 cell lysates)) EUB0000639a SRPK1. The settings on record: lysate, at 5 µM. The class given is subcellular.
SRSF protein kinase 1, sequence (Q96SB4 whole entry): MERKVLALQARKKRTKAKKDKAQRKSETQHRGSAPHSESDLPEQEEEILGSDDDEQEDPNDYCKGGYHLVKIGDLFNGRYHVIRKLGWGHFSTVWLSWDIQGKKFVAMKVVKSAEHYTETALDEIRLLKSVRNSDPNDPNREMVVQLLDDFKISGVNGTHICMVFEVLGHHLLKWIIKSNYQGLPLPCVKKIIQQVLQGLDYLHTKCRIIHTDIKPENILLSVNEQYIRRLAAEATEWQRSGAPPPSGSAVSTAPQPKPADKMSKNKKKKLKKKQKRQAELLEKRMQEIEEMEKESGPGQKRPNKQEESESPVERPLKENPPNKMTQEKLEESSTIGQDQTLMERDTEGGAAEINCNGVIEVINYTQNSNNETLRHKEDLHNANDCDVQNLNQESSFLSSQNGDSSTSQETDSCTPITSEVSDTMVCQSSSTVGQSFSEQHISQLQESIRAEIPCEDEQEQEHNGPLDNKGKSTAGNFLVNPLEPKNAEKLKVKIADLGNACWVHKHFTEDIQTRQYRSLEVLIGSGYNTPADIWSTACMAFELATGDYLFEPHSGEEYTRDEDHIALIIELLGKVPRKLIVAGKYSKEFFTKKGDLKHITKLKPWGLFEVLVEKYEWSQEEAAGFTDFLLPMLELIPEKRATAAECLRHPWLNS

Vascular endothelial growth factor receptor 2, sequence (P35968 whole entry): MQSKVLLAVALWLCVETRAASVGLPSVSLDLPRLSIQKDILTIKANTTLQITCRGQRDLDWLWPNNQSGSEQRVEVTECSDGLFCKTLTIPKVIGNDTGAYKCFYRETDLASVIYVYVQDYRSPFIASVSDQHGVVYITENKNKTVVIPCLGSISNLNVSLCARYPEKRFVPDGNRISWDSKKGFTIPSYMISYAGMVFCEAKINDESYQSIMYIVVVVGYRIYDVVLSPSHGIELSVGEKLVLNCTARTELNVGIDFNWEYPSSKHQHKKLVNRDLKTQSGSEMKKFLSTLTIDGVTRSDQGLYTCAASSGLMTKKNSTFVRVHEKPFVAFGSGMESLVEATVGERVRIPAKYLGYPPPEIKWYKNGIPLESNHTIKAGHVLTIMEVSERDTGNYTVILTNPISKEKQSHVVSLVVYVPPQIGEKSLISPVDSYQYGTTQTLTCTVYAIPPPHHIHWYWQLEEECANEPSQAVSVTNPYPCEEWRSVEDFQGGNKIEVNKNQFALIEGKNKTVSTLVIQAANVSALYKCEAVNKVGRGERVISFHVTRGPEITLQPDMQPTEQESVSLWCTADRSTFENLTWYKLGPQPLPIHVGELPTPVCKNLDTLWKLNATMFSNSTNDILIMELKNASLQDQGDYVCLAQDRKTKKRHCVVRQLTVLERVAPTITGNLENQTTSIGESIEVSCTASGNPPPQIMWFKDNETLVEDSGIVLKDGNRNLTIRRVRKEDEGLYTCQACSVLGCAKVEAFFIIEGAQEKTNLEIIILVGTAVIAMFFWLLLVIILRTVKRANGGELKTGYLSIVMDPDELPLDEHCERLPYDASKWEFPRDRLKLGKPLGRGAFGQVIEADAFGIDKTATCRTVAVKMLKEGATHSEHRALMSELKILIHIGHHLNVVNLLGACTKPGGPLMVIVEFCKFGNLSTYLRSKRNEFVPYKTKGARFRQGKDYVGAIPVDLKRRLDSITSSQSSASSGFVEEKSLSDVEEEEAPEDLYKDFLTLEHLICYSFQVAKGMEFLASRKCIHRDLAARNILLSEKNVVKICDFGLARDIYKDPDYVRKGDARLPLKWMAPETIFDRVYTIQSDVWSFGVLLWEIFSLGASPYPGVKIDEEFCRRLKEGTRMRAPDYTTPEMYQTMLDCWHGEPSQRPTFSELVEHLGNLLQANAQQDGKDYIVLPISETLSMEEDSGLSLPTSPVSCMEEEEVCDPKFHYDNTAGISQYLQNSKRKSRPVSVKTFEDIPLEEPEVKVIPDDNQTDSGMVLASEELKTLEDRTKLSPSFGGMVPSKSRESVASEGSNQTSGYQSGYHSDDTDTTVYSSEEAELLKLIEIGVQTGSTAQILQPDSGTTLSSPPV

For the compound `C=CC(=O)Nc1cccc(C(=O)Nc2ccc(Nc3cc(-c4[nH]c(SC)nc4C)ccn3)cc2)c1`, the % of control in experiment [1] (at 1 µM) was 79%; in experiment [1] (at 5 µM), 54%.

For the compound `Cc1cc([C@@H](C)Nc2ccccc2C(=O)O)c2nc(N3CCOCC3)cc(=O)n2c1` [AZD-6482], in experiment [2], the % of control worked out at 100%.

For the compound `Nc1cnc(N2CCc3cc(S(=O)(=O)Nc4c(F)cc(Cl)cc4F)cc(N4CCCC4=O)c32)nc1` [TP-020n], the % of control in experiment [3] stood at 81%.

As for `C=CC(=O)Nc1cc(-n2c(=O)ccc3cnc4ccc(-c5ccc(NS(C)(=O)=O)cc5)cc4c32)ccc1C`, the % of control in experiment [4] (at 1 µM) amounted to 88%; in experiment [4] (at 10 µM), 100%; in experiment [5] (at 1 µM), 61%; in experiment [5] (at 10 µM), 100%.

`CC[C@@H]1[C@H](F)C(=O)N[C@@H]1COc1nccc2cc(C(N)=O)c(OC)cc12` [ZIMLOVISERTIB]: on SRSF protein kinase 1, the % of inhibition is -1.1%.
